# According to article PMC7113690 (Antiviral Research, 2015):
# Structures can show the parent of a compound that is named as a salt. Where two headings read alike, the source gives them in different places.
# What was measured:
# [1] = system: EBOV (Zaire strain) GP/HIV core pseudovirus (pEBOV); experiment: organism not typed; assay type: cell-based, Ebola virus (Zaire strain); settings: for EC50: read-out: EC50 pEBOV
# [2] = system: VSV G/HIV core pseudovirus (pVSV); experiment: organism not typed; assay type: cell-based; settings: for EC50: read-out: EC50 pVSV
# [3] = system: poliovirus 1 (PV1, strain Sabin); assay type: cell-based
# EBOV = settings: mouse, in vivo, 14 mg/kg; cited from earlier work
# eGFP-EBOV = settings: cited from earlier work
# [4] = system: EBOV pseudovirus (pEBOV) entry into Vero cells; assay type: cell-based, Ebola virus (Zaire strain)
# [5] = system: enterovirus 71 (EV-A71, strain G082); assay type: cell-based
# [6] = cited from earlier work
# [7] = in vivo; cited from earlier work
# bacteremia = settings: in vivo, 40 mg/kg; cited from earlier work
# [8] = system: Coxsackievirus A16 (CV-A16, strain SHZH05-1); assay type: cell-based
# [9] = system: Ebola virus (Zaire strain) minigenome; assay type: cell-based
molecule,measurement,setting,value
C[C@@H]1CC[C@H]2[C@@H](C)C(=O)O[C@@H]3O[C@@]4(C)CC[C@@H]1[C@]32OO4 [Artemisinin],EC50,"[1]; Vero, 72 h",74.1 µM
same,EC50,"[2]; Vero, 72 h",162 µM
O=C(OCC(O)CO)c1ccccc1Nc1ccnc2cc(Cl)ccc12 (centres unmarked) [Glafenine],EC50,"[1]; Vero, 72 h",11.1 µM
same,EC50,"[2]; Vero, 72 h",10.9 µM
CC(C(=O)O)c1ccc(N2Cc3ccccc3C2=O)cc1 (centres unmarked) [Indoprofen],EC50,"[1]; Vero, 72 h",9.37 µM
same,EC50,"[2]; Vero, 72 h",8.51 µM
Oc1c(I)cc(I)c2cccnc12 [Iodoquinol],EC50,"[1]; Vero, 72 h",3.5 µM
same,EC50,"[2]; Vero, 72 h",3.45 µM
C[C@H](N)[C@H](O)c1ccc(O)c(O)c1 [Levonordefrin],EC50,"[1]; Vero, 72 h",> 50 µM
same,EC50,"[2]; Vero, 72 h",> 50 µM
CCN(CC)CCOCCOC(=O)C(CC)(CC)c1ccccc1 [Oxeladin],EC50,"[1]; Vero, 72 h",8.06 µM
same,EC50,"[2]; Vero, 72 h",38.1 µM
Fc1ccc([C@@H]2CCNC[C@H]2COc2ccc3c(c2)OCO3)cc1 [Paroxetine],EC50,"[1]; Vero, 72 h",2.4 µM
same,EC50,"[2]; Vero, 72 h",7.39 µM
CN1CCC(=C2c3ccccc3Sc3ccccc32)CC1 [Pimethixene maleate],EC50,"[1]; Vero, 72 h",10.7 µM
same,EC50,"[2]; Vero, 72 h",14.8 µM
O=C1C=C2C=C[C@@H]3C[C@@]2(O1)[C@H]1CCCCN31 [Securinine],EC50,"[1]; Vero, 72 h",27.1 µM
same,EC50,"[2]; Vero, 72 h",26.6 µM
CN(C)CCOc1ccc(/C(=C(/CCCl)c2ccccc2)c2ccccc2)cc1 [Toremiphene],EC50,"[1]; Vero, 72 h",0.38 µM
same,EC50,"[2]; Vero, 72 h",7.53 µM
CN[C@H](CC(C)C)C(=O)N[C@H]1C(=O)N[C@@H](CC(N)=O)C(=O)N[C@H]2C(=O)N[C@H]3C(=O)N[C@H](C(=O)N[C@H](C(=O)O)c4cc(O)cc(O)c4-c4cc3ccc4O)[C@H](O)c3ccc(c(Cl)c3)Oc3cc2cc(c3O[C@@H]2O[C@H](CO)[C@@H](O)[C@H](O)[C@H]2O[C@H]2C[C@](C)(N)[C@H](O)[C@H](C)O2)Oc2ccc(cc2Cl)[C@H]1O [vancomycin],inhibition at 125 µM,"[1]; Vero, read-out: inhibition of pEBOV",24.7%
Teicoplanin,inhibition of pEBOV infection (in words),[1]; 125 µM,completely inhibited
same,EC50,[1],2.38 µM
same,EC90,[1]; read-out: EC90 pEBOV,9.36 µM
same,inhibition of PV1,[3],no inhibition was observed
same,protection of EBOV-infected mice,EBOV,no protection was observed
same,CC50,Vero cells,> 125 µM
same,cytotoxicity,Vero cells,without cytotoxicity
same,activity against eGFP-EBOV in vitro,eGFP-EBOV,active
same,"inhibition of pEBOV infection, during infection",[4],efficiently inhibited infection
same,"inhibition of pEBOV infection, post-attachment",[4],no inhibition was detected
same,"inhibition of pEBOV infection, pre-attachment",[4],efficiently inhibited infection
same,inhibition of EV-A71,[5],no inhibition was observed
same,bound to plasma protein,[6],90%
same,Cmin at which toxicity is seen,[7],≥ 60000 ng/mL
same,trough plasma concentration (Cmin),[7],20000 to 60000 ng/mL
same,safety and decrease of bacteremia,bacteremia,safe and effectively in decreasing bacteremia
same,inhibition of CV-A16,[8],no inhibition was observed
same,inhibition of pVSV infection,[2]; 125 µM,less than 20%
same,EC50,[2],> 125 µM
same,inhibition of EBOV minigenome replication,[9],did not inhibit
